From PubChem BioAssay (NCI)
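Results reflect a 48-hour exposure of cells in 96-well plates to compound at five concentrations. TGI is the concentration that stops growth completely.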

What was measured:
Experiment in all cases: NCI anticancer screen, dose series, 48 h
SF-295 CNS = test system: SF-295 CNS
CCRF-CEM leukemia = test system: CCRF-CEM leukemia
HL-60(TB) leukemia = test system: HL-60(TB) leukemia
T-47D breast = test system: T-47D breast
SW-620 colon = test system: SW-620 colon
HCT-15 colon = test system: HCT-15 colon
TK-10 renal = test system: TK-10 renal
DU-145 prostate = test system: DU-145 prostate
CAKI-1 renal = test system: CAKI-1 renal
PC-3 prostate = test system: PC-3 prostate
ACHN renal = test system: ACHN renal
SNB-75 CNS = test system: SNB-75 CNS
UO-31 renal = test system: UO-31 renal
RPMI-8226 leukemia = test system: RPMI-8226 leukemia
HOP-62 NSCLC = test system: HOP-62 NSCLC
OVCAR-3 ovarian = test system: OVCAR-3 ovarian
UACC-62 melanoma = test system: UACC-62 melanoma
U251 CNS = test system: U251 CNS
SNB-19 CNS = test system: SNB-19 CNS
UACC-257 melanoma = test system: UACC-257 melanoma
MCF7 breast = test system: MCF7 breast
SK-MEL-2 melanoma = test system: SK-MEL-2 melanoma
MOLT-4 leukemia = test system: MOLT-4 leukemia
HCT-116 colon = test system: HCT-116 colon
OVCAR-8 ovarian = test system: OVCAR-8 ovarian
MDA-N = test system: MDA-N
HS 578T breast = test system: HS 578T breast
COLO 205 colon = test system: COLO 205 colon
A498 renal = test system: A498 renal
NCI-H522 lung = test system: NCI-H522 lung
SK-OV-3 ovarian = test system: SK-OV-3 ovarian
MDA-MB-231 breast = test system: MDA-MB-231 breast
MDA-MB-435 = test system: MDA-MB-435
M14 melanoma = test system: M14 melanoma
SR leukemia = test system: SR leukemia
OVCAR-4 ovarian = test system: OVCAR-4 ovarian
NCI-H23 lung = test system: NCI-H23 lung
NCI-H226 lung = test system: NCI-H226 lung
786-0 renal = test system: 786-0 renal
HCC-2998 colon = test system: HCC-2998 colon
HOP-92 NSCLC = test system: HOP-92 NSCLC
SK-MEL-5 melanoma = test system: SK-MEL-5 melanoma
K-562 leukemia = test system: K-562 leukemia
SK-MEL-28 melanoma = test system: SK-MEL-28 melanoma
RXF 393 renal = test system: RXF 393 renal
NCI/ADR-RES ovarian = test system: NCI/ADR-RES ovarian
SF-268 CNS = test system: SF-268 CNS
EKVX NSCLC = test system: EKVX NSCLC
LOX IMVI melanoma = test system: LOX IMVI melanoma
A549 NSCLC = test system: A549 NSCLC
KM12 colon = test system: KM12 colon
HT29 colon = test system: HT29 colon
BT-549 breast = test system: BT-549 breast
IGROV1 ovarian = test system: IGROV1 ovarian
SN12C renal = test system: SN12C renal
SF-539 CNS = test system: SF-539 CNS
NCI-H460 lung = test system: NCI-H460 lung
MALME-3M melanoma = test system: MALME-3M melanoma
OVCAR-5 ovarian = test system: OVCAR-5 ovarian

Work on COc1c(O)ccc(C2=Cc3ccc(O)cc3OC2)c1OC yielded a TGI (SF-295 CNS) of over 83.6 µM, a TGI (CCRF-CEM leukemia) of over 96.7 µM and a TGI (HL-60(TB) leukemia) of 10.7 µM. The TGI (T-47D breast) was over 82.3 µM, the TGI (SW-620 colon) was over 100 µM and the TGI (HCT-15 colon) was 37.3 µM. The TGI (TK-10 renal) was over 100 µM, the TGI (DU-145 prostate) was over 79.6 µM and the TGI (CAKI-1 renal) was 50 µM. For the same compound, the TGI (PC-3 prostate) was 84.4 µM, the TGI (ACHN renal) was over 63.4 µM and the TGI (SNB-75 CNS) was over 58.3 µM. For the same compound, the TGI (UO-31 renal) was 28.4 µM, the TGI (RPMI-8226 leukemia) was over 26.8 µM and the TGI (HOP-62 NSCLC) was 62.4 µM. The TGI (OVCAR-3 ovarian) was 34 µM, the TGI (UACC-62 melanoma) was over 50.7 µM and the TGI (U251 CNS) was over 100 µM. For the same compound, the TGI (SNB-19 CNS) was over 100 µM, the TGI (UACC-257 melanoma) was over 89.7 µM and the TGI (MCF7 breast) was over 100 µM. For the same compound, the TGI (SK-MEL-2 melanoma) was 68 µM, the TGI (MOLT-4 leukemia) was 37 µM and the TGI (HCT-116 colon) was over 61.7 µM. The TGI (OVCAR-8 ovarian) was over 62.5 µM, the TGI (MDA-N) was 33.5 µM and the TGI (HS 578T breast) was over 95.3 µM. The TGI (COLO 205 colon) was over 74 µM, the TGI (A498 renal) was 80.8 µM and the TGI (NCI-H522 lung) was 16.1 µM. It also gave a TGI (SK-OV-3 ovarian) of over 80.8 µM, a TGI (MDA-MB-231 breast) of over 80.7 µM and a TGI (MDA-MB-435) of over 92.2 µM. For the same compound, the TGI (M14 melanoma) was 66.8 µM, the TGI (SR leukemia) was 17.1 µM and the TGI (OVCAR-4 ovarian) was over 81.1 µM. For the same compound, the TGI (NCI-H23 lung) was over 58.3 µM, the TGI (NCI-H226 lung) was over 65.4 µM and the TGI (786-0 renal) was over 63.5 µM. It also gave a TGI (HCC-2998 colon) of 47.1 µM, a TGI (HOP-92 NSCLC) of over 74 µM and a TGI (SK-MEL-5 melanoma) of 38.5 µM. For the same compound, the TGI (K-562 leukemia) was 45.8 µM, the TGI (SK-MEL-28 melanoma) was over 94 µM and the TGI (RXF 393 renal) was over 63.5 µM. The TGI (NCI/ADR-RES ovarian) was over 67.9 µM, the TGI (SF-268 CNS) was over 100 µM and the TGI (EKVX NSCLC) was over 100 µM. For the same compound, the TGI (LOX IMVI melanoma) was over 100 µM, the TGI (A549 NSCLC) was over 78.9 µM and the TGI (KM12 colon) was 33.4 µM. It also gave a TGI (HT29 colon) of over 89.5 µM, a TGI (BT-549 breast) of over 82.4 µM and a TGI (IGROV1 ovarian) of over 100 µM. It also gave a TGI (SN12C renal) of over 96.5 µM, a TGI (SF-539 CNS) of 35.3 µM and a TGI (NCI-H460 lung) of over 100 µM. It also gave a TGI (MALME-3M melanoma) of 65.7 µM and a TGI (OVCAR-5 ovarian) of 97.7 µM.

In the case of CC(=O)Nc1ccc(S(=O)(=O)/N=C2\C=CC(=O)c3ccccc32)cc1, the TGI (SF-295 CNS) is reported as 15.1 µM, the TGI (CCRF-CEM leukemia) is reported as 27.7 µM and the TGI (HL-60(TB) leukemia) is reported as 11.2 µM. It also gave a TGI (T-47D breast) of over 83 µM, a TGI (SW-620 colon) of 47.6 µM and a TGI (HCT-15 colon) of 16.1 µM. The TGI (TK-10 renal) was 36.9 µM, the TGI (DU-145 prostate) was over 57.2 µM and the TGI (CAKI-1 renal) was 35.7 µM. It also gave a TGI (PC-3 prostate) of 15.4 µM, a TGI (ACHN renal) of 16.4 µM and a TGI (SNB-75 CNS) of 14.1 µM. The TGI (UO-31 renal) was 20 µM, the TGI (RPMI-8226 leukemia) was 25.9 µM and the TGI (HOP-62 NSCLC) was 22.8 µM. It also gave a TGI (OVCAR-3 ovarian) of 10.3 µM, a TGI (UACC-62 melanoma) of 12.2 µM and a TGI (U251 CNS) of 14.2 µM. For the same compound, the TGI (SNB-19 CNS) was 28.3 µM, the TGI (UACC-257 melanoma) was 12.4 µM and the TGI (MCF7 breast) was 12.2 µM. It also gave a TGI (SK-MEL-2 melanoma) of 32.1 µM, a TGI (MOLT-4 leukemia) of 1.25 µM and a TGI (HCT-116 colon) of 22.8 µM. For the same compound, the TGI (OVCAR-8 ovarian) was 9.13 µM, the TGI (MDA-N) was 3.59 µM and the TGI (HS 578T breast) was 26.1 µM. It also gave a TGI (COLO 205 colon) of 26.9 µM, a TGI (A498 renal) of 21.2 µM and a TGI (NCI-H522 lung) of 29 µM. For the same compound, the TGI (SK-OV-3 ovarian) was 33.8 µM, the TGI (MDA-MB-231 breast) was 10.7 µM and the TGI (MDA-MB-435) was 3.36 µM. For the same compound, the TGI (M14 melanoma) was 11.1 µM, the TGI (SR leukemia) was 11.8 µM and the TGI (OVCAR-4 ovarian) was 8.6 µM. It also gave a TGI (NCI-H23 lung) of 13.3 µM, a TGI (NCI-H226 lung) of 18.1 µM and a TGI (786-0 renal) of 26.4 µM. The TGI (HCC-2998 colon) was 10.7 µM, the TGI (HOP-92 NSCLC) was 21.7 µM and the TGI (SK-MEL-5 melanoma) was 8.7 µM. It also gave a TGI (K-562 leukemia) of 9.13 µM, a TGI (SK-MEL-28 melanoma) of 24.4 µM and a TGI (RXF 393 renal) of 15.6 µM. The TGI (NCI/ADR-RES ovarian) was 22.9 µM, the TGI (SF-268 CNS) was 17.2 µM and the TGI (EKVX NSCLC) was 22 µM. For the same compound, the TGI (LOX IMVI melanoma) was 15.2 µM, the TGI (A549 NSCLC) was 29.7 µM and the TGI (KM12 colon) was 40.5 µM. For the same compound, the TGI (HT29 colon) was 33.7 µM, the TGI (BT-549 breast) was 25.3 µM and the TGI (IGROV1 ovarian) was 10.7 µM. For the same compound, the TGI (SN12C renal) was 11.9 µM, the TGI (SF-539 CNS) was 15.6 µM and the TGI (NCI-H460 lung) was 28.5 µM. It also gave a TGI (MALME-3M melanoma) of 9.66 µM and a TGI (OVCAR-5 ovarian) of 20.6 µM.
